Numbers after ± are expanded uncertainties.
Assay: mn = molality of the nth substance listed, in mol/kg
Details: 101 kPa, Liquid; for speed of sound: Pulse-echo method

CC#N [acetonitrile] + [Co+2].[O-][Cl+3]([O-])([O-])[O-].[O-][Cl+3]([O-])([O-])[O-]
m2 = 0
Details | mass density [kg/m3]
288.13 K | 787.307 ± 0.74
293.15 K | 781.933 ± 0.75
298.15 K | 776.535 ± 0.76
303.15 K | 771.114 ± 0.76
308.15 K | 765.664 ± 0.77
313.15 K | 760.181 ± 0.78
323.15 K | 749.107 ± 0.79

CC#N [acetonitrile] + [Cu+2].[O-][Cl+3]([O-])([O-])[O-].[O-][Cl+3]([O-])([O-])[O-]
m2 = 0
Details | mass density [kg/m3]
288.13 K | 787.308 ± 0.74
293.15 K | 781.932 ± 0.75
298.15 K | 776.532 ± 0.76
303.15 K | 771.102 ± 0.76
308.15 K | 765.645 ± 0.77
313.15 K | 760.155 ± 0.78
323.15 K | 749.067 ± 0.8

CC#N [acetonitrile] + [Mn+2].[O-][Cl+3]([O-])([O-])[O-].[O-][Cl+3]([O-])([O-])[O-]
m2 = 0
Details | mass density [kg/m3]
288.15 K | 787.308 ± 0.74
293.15 K | 781.932 ± 0.74
298.15 K | 776.531 ± 0.75
303.15 K | 771.102 ± 0.76
308.15 K | 765.645 ± 0.77
313.15 K | 760.156 ± 0.78
323.15 K | 749.07 ± 0.79

CC#N [acetonitrile] + [Ni+2].[O-][Cl+3]([O-])([O-])[O-].[O-][Cl+3]([O-])([O-])[O-]
m2 = 0
Details | mass density [kg/m3]
288.13 K | 787.307 ± 0.74
293.15 K | 781.93 ± 0.75
298.15 K | 776.53 ± 0.76
303.15 K | 771.101 ± 0.76
308.15 K | 765.645 ± 0.77
313.15 K | 760.155 ± 0.78
323.15 K | 749.068 ± 0.8

CC#N [acetonitrile] + [O-][Cl+3]([O-])([O-])[O-].[O-][Cl+3]([O-])([O-])[O-].[Zn+2]
m2 = 0
Details | mass density [kg/m3]
288.13 K | 787.312 ± 0.74
293.15 K | 781.934 ± 0.75
298.15 K | 776.535 ± 0.76
303.15 K | 771.106 ± 0.76
308.15 K | 765.649 ± 0.77
313.15 K | 760.158 ± 0.78
323.15 K | 749.07 ± 0.8

[Co+2].[O-][Cl+3]([O-])([O-])[O-].[O-][Cl+3]([O-])([O-])[O-] [cobalt(II) perchlorate] + CC#N
Details | mass density, 288.13 K [kg/m3] | mass density, 293.15 K [kg/m3] | mass density, 298.15 K [kg/m3] | mass density, 303.15 K [kg/m3] | mass density, 308.15 K [kg/m3] | mass density, 313.15 K [kg/m3] | mass density, 323.15 K [kg/m3] | speed of sound, 298.15 K [m/s]
m1 = 0.0631 | 799.771 ± 0.72 | 794.418 ± 0.73 | 789.05 ± 0.74 | 783.653 ± 0.74 | 778.228 ± 0.75 | 772.771 ± 0.76 | 761.76 ± 0.78 | –
m1 = 0.06311 | – | – | – | – | – | – | – | 1282.4 ± 1.4
m1 = 0.1115 | 809.436 ± 0.71 | 804.1 ± 0.72 | 798.743 ± 0.73 | 793.363 ± 0.73 | 787.958 ± 0.74 | 782.523 ± 0.75 | 771.558 ± 0.76 | 1285.1 ± 1.4
m1 = 0.1477 | 816.764 ± 0.7 | 811.44 ± 0.71 | 806.094 ± 0.72 | 800.726 ± 0.72 | 795.334 ± 0.73 | 789.913 ± 0.74 | 778.975 ± 0.75 | 1287 ± 1.4
m1 = 0.1815 | 823.65 ± 0.7 | 818.333 ± 0.7 | 812.996 ± 0.71 | 807.639 ± 0.72 | 802.256 ± 0.72 | 796.848 ± 0.73 | 785.942 ± 0.74 | 1289 ± 1.4
m1 = 0.2169 | 831.031 ± 0.69 | 825.723 ± 0.69 | 820.399 ± 0.7 | 815.051 ± 0.71 | 809.685 ± 0.71 | 804.289 ± 0.72 | 793.42 ± 0.74 | 1290.7 ± 1.4
m1 = 0.2496 | 837.824 ± 0.68 | 832.525 ± 0.69 | 827.21 ± 0.69 | 821.873 ± 0.7 | 816.516 ± 0.71 | 811.134 ± 0.71 | 800.293 ± 0.73 | 1292.6 ± 1.4
m1 = 0.2829 | 844.904 ± 0.67 | 839.613 ± 0.68 | 834.306 ± 0.69 | 828.983 ± 0.69 | 823.636 ± 0.7 | 818.267 ± 0.7 | 807.451 ± 0.72 | 1294.5 ± 1.4
m1 = 0.3172 | 852.306 ± 0.67 | 847.023 ± 0.67 | 841.727 ± 0.68 | 836.41 ± 0.69 | 831.074 ± 0.69 | 825.719 ± 0.7 | 814.932 ± 0.71 | 1296.4 ± 1.4
m1 = 0.3491 | 859.24 ± 0.66 | 853.965 ± 0.67 | 848.675 ± 0.67 | 843.372 ± 0.68 | 838.048 ± 0.68 | 832.702 ± 0.69 | 821.94 ± 0.7 | 1298.2 ± 1.4

[Cu+2].[O-][Cl+3]([O-])([O-])[O-].[O-][Cl+3]([O-])([O-])[O-] [copper perchlorate] + CC#N
Details | mass density, 288.13 K [kg/m3] | mass density, 293.15 K [kg/m3] | mass density, 298.15 K [kg/m3] | mass density, 303.15 K [kg/m3] | mass density, 308.15 K [kg/m3] | mass density, 313.15 K [kg/m3] | mass density, 323.15 K [kg/m3] | speed of sound, 298.15 K [m/s]
m1 = 0.0572 | 798.765 ± 0.72 | 793.409 ± 0.73 | 788.03 ± 0.74 | 782.624 ± 0.75 | 777.19 ± 0.76 | 771.728 ± 0.76 | 760.698 ± 0.78 | –
m1 = 0.05724 | – | – | – | – | – | – | – | 1281.6 ± 1.4
m1 = 0.1013 | 807.682 ± 0.71 | 802.334 ± 0.72 | 796.961 ± 0.73 | 791.568 ± 0.74 | 786.147 ± 0.74 | 780.696 ± 0.75 | 769.697 ± 0.77 | 1284.3 ± 1.4
m1 = 0.1335 | 814.263 ± 0.71 | 808.919 ± 0.71 | 803.556 ± 0.72 | 798.17 ± 0.73 | 792.754 ± 0.73 | 787.314 ± 0.74 | 776.342 ± 0.76 | 1286.2 ± 1.4
m1 = 0.1645 | 820.66 ± 0.7 | 815.323 ± 0.71 | 809.967 ± 0.71 | 804.588 ± 0.72 | 799.184 ± 0.73 | 793.753 ± 0.73 | 782.802 ± 0.75 | 1288.2 ± 1.4
m1 = 0.1975 | 827.568 ± 0.69 | 822.238 ± 0.7 | 816.887 ± 0.71 | 811.516 ± 0.71 | 806.117 ± 0.72 | 800.692 ± 0.73 | 789.754 ± 0.74 | 1290 ± 1.4
m1 = 0.2264 | 833.698 ± 0.69 | 828.373 ± 0.69 | 823.028 ± 0.7 | 817.66 ± 0.71 | 812.272 ± 0.71 | 806.857 ± 0.72 | 795.939 ± 0.73 | 1291.8 ± 1.4
m1 = 0.258 | 840.493 ± 0.68 | 835.168 ± 0.69 | 829.828 ± 0.69 | 824.467 ± 0.7 | 819.083 ± 0.7 | 813.673 ± 0.71 | 802.774 ± 0.72 | 1293.7 ± 1.4
m1 = 0.285 | 846.334 ± 0.67 | 841.014 ± 0.68 | 835.678 ± 0.69 | 830.323 ± 0.69 | 824.946 ± 0.7 | 819.544 ± 0.7 | 808.66 ± 0.72 | 1295.4 ± 1.4
m1 = 0.3172 | 853.453 ± 0.67 | 848.137 ± 0.67 | 842.806 ± 0.68 | 837.456 ± 0.69 | 832.084 ± 0.69 | 826.687 ± 0.7 | 815.817 ± 0.71 | 1297.3 ± 1.4
